Data as given in patent US20110178105A1, “CLINICAL BENEFITS OF EICOSAPENTAENOIC ACID IN HUMANS” (E.I. DU PONT DE NEMOURS AND COMPANY, priority 2010, published 2011).
“Also recorded” adds a separate entry of the source. Where two headings read alike, the source gives them in different places. Each block holds one compound with its values, some of them ahead of it.

Experiments:
[1] = parameters: reduction of events / relative risk reduction in stroke / reduction of risk of subsequent CHD events / relative risk reduction of major cardiovascular events: concentration or dose not given beside the values; conditions: cited from earlier work
[2] = Clinical study: serum fatty acid profiles (EPA, ARA/EPA, Total Omega-3 Score); format: in vivo, human; conditions: 6 weeks; for Total Omega-3 Score: FIG. 4; for serum level of EPA / serum ratio of ARA/EPA (Inflammation Index): EPA 600 and 1800 mg/day, DHA 600 mg/day; for serum level of EPA: FIG. 1; for serum ratio of ARA/EPA (Inflammation Index): FIG. 3
Experimental: On the samples obtained 4 hours after the fat-rich meal, total cholesterol, triglycerides, direct HDL cholesterol, and direct LDL cholesterol were measured. Direct LDL cholesterol and small dense LDL cholesterol levels were measured using kits obtained from Denka-Seiken Corporation, (Tokyo, Japan), as previously described (Okada, M. et al., supra; Hirano, T. et al., supra; Ai, M. et al., supra). Remnant lipoprotein cholesterol was measured using kits obtained from Polymedco (Cortland Manor, N.Y.) and manufactured by Otsuka Corporation (Tokyo, Japan) as previously described (McNamara, J. R. et al., Atherosclerosis, supra). All lipid assays are standardized through the Lipid Research Clinics standardization program of the Centers for Disease Control (Atlanta, Ga.). All assays had between and within run coefficients of variation of <5%. Serum fatty acid profiles were analyzed by Nutrasource Diagnostics (Guelph, Ontario, Canada).

[3] = Clinical study: adverse effects and safety testing; format: in vivo, human
Experimental: The goal of this study was to test the safety and efficacy of an EPA-enriched oil (as described in Examples 1-3; E.I. duPont de Nemours & Co., Inc. Applied Biosciences, Wilmington, Del.), to corroborate the safety of a novel oil rich in EPA in humans prior to this product being placed on the market as a dietary supplement. This oil was tested at doses of 600 mg and 1800 mg of EPA/day as compared to olive oil placebo and a comparator omega-3 oil providing 600 mg of DHA/day over a 6 week period in a parallel arm design in approximately 120 healthy adults studied in both the fasting and post-prandial state. Safety was monitored by assessing for adverse reactions, measuring vital signs and a variety of laboratory tests including a complete metabolic profile, thyroid function tests, complete blood count, and prothrombin time.
Standard chemistry tests were carried at all visits (screening, enrollment, and final study visit after an overnight fast by Quest Laboratories, Cambridge, Mass.): blood urea nitrogen, creatinine, calculated glomerular filtration rate, sodium, potassium, chloride, carbon dioxide, calcium, total protein, albumin, globulin, total bilirubin, alkaline phosphatase, liver transaminases AST and ALT, and glucose. A complete blood count was also performed at all visits and included: hemoglobin, hematocrit, red blood cell count, platelet count, white blood cell count and a white blood cell count differential. Additional tests included: prothrombin time, and measurement of thyroid function including T3, T4 and T3 uptake. […]
At visit 2, subjects were again asked to fast for 12 hours, and information about subject characteristics including all vital signs, recent illness or hospitalization, medication and supplement use, and diet information was again obtained. […] Compliance and adverse events were assessed by telephone at weeks 1 and 3 by telephone and at week 6 by questionnaire and capsule count. […] Compliance was calculated as a percentage of consumed capsule count/expected capsule count based on the number of days the subject was in the study. […]

[4] = rat; DHA TG supplementation; cited from earlier work
[5] = doses of approximately 1200 mg/day; cited from earlier work
[6] = EPA 1800 mg/day plus statin group (9,326), 4.6 years of follow-up

SMILES: CCC=CCC=CCC=CCC=CC/C=C\CCCC(=O)O [EPA, cis-5,8, 11, 14, 17-eicosapentaenoic acid]
triglyceride lowering ([1]; 1800 mg/day of EPA): no significant effect
reduction of risk of subsequent CHD events ([1]; 1,050 subjects with prior myocardial infarction, EPA plus statin, p=0.033): 27%
decrease in cardiovascular events ([1]; >98% purified EPA-ethyl esters plus statin versus statin alone): 19%
major cardiovascular event rate [1, 6]: 2.8%
major cardiovascular events observed [1, 6]: 262 events
sudden death rates between the groups ([1]; EPA plus statin versus statin-only): No significant differences
relative risk reduction of major cardiovascular events ([1]; EPA plus statin versus statin-only, p=0.011): 19%
effects on lipid levels ([1]; EPA plus statin): not associated with any significant effects
reduction in stroke ([1]; entire cohort, EPA plus statin): not associated with a significant reduction
stroke rate ([1]; entire cohort, EPA plus statin): 1.3%
risk reduction ([1]; impaired glucose tolerance (fasting glucose >110 mg/dl), EPA plus statin, p=0.048): 22%
risk reduction ([1]; normal glucose group, EPA plus statin, not significant): 18%
reduction of events ([1]; patients with a history of prior CHD, EPA plus statin versus statin-only, p=0.048): 19%
event rate ([1]; patients with a history of prior CHD, EPA plus statin): 8.7%
number needed to treat ([1]; patients with a history of prior CHD): 49
rate of subsequent CHD events ([1]; subjects with prior myocardial infarction, EPA plus statin): 15.0%
number needed to treat to prevent one event ([1]; subjects with prior myocardial infarction): 19
stroke rate ([1]; subjects with prior stroke, EPA plus statin): 6.8%
relative risk reduction in stroke ([1]; subjects with prior stroke, EPA plus statin, p<0.05): 20%
event rate ([1]; subjects without CHD, EPA plus statin): 1.4%
risk reduction ([1]; subjects without CHD, p 0.132 (not significant)): 18%
reduction of CHD events ([1]; triglyceride >150 mg/dl and HDL cholesterol <40 mg/dl, EPA plus statin, p=0.043): 53%
metabolic conversion of EPA to DHA [2]: no indication
Total Omega-3 Score [2]: increased
serum level of EPA [2]: significantly raised
serum ratio of ARA/EPA (Inflammation Index) ([2]; listed as EPA substantially free of DHA): significantly decreased
serum ratio of ARA/EPA (Inflammation Index) ([2]; listed as EPA-rich oil): dose-related decrease; also recorded: significantly decreased
fishy odor with belching occasionally experienced (share of subjects) ([3]; EPA 600 mg group): 15%
fishy odor with belching occasionally experienced (share of subjects) ([3]; EPA 1800 mg group): 28%

retroconversion of DHA to EPA [2]: no indication
serum level of EPA [2]: not
SMILES: CCC=CCC=CCC=CCC=CCC=CC/C=C\CCC(=O)O [DHA, cis-4,7, 10, 13, 16, 19-docosahexaenoic acid, reference compound]
plasma and erythrocyte DHA content, DHA TG versus DHA EE [4]: higher
lowering of triglyceride levels [5]: about 25%
Total Omega-3 Score [2]: increased
serum ratio of ARA/EPA (Inflammation Index) ([2]; listed as DHA-rich oil): no such effect
fishy odor with belching occasionally experienced (share of subjects) ([3]; DHA 600 mg group): 39%
